Measurements taken from ChEMBL document CHEMBL1201862, “PubChem BioAssay data set” (2004).
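Growth conditions: 96-well plates. Treatment: test compound, 48 hours, 5 concentrations. Analysis: linear interpolation between bracketing concentrations; unreached endpoints set to highest concentration. GI50 = concentration required for 50% inhibition of growth.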 Activity calls are given as the source filed them. Rule as the data show it: active = GI50 up to about 1.1 µM and inactive = higher.

Legend:
Experiment in all cases: NCI-60 cell line screen, 48 h
[1] = system: A498
[2] = system: A549
[3] = system: CAKI-1
[4] = system: COLO 205
[5] = system: HL-60
[6] = system: HOP-62
[7] = system: HT-29
[8] = system: KM12
[9] = system: LOX IMVI
[10] = system: M19-MEL
[11] = system: Malme-3M
[12] = system: SF-268
[13] = system: SN12C
[14] = system: SNB-75
[15] = system: UACC-257

Measured: GI50

NC(=S)N1N=C2c3ccccc3CC[C@@H]2[C@@H]1c1ccccc1
inactive: [1] 13.2 µM | [2] 8.59 µM | [3] 5.01 µM | [4] 3.72 µM | [5] 2.86 µM | [6] 5.43 µM | [7] 3.15 µM | [8] 4.27 µM | [9] 5.86 µM | [10] 4.97 µM | [11] 5.4 µM | [12] 10.2 µM | [13] 5.05 µM | [14] 3.62 µM | [15] 9.29 µM

Nc1n/c(=N\c2ccccc2)ss1
inactive: [1] > 100 µM | [2] > 100 µM | [3] > 100 µM | [4] > 100 µM | [5] 19.9 µM | [6] > 100 µM | [7] > 100 µM | [8] > 100 µM | [9] 51.4 µM | [10] 99.5 µM | [11] > 100 µM | [12] > 100 µM | [13] > 100 µM | [14] > 100 µM | [15] > 100 µM

CC(=O)OCCOCBr
inactive: [1] > 100 µM | [2] > 100 µM | [3] > 100 µM | [4] > 100 µM | [5] > 100 µM | [6] > 100 µM | [7] > 100 µM | [8] > 100 µM | [9] > 100 µM | [10] > 100 µM | [11] > 100 µM | [12] > 100 µM | [13] > 100 µM | [14] > 100 µM | [15] > 100 µM

COC(=O)/C=C/c1c(CC=C(C)C)ncn1C
inactive: [1] > 84.1 µM | [2] 70.3 µM | [3] > 68.1 µM | [4] 20.9 µM | [5] 4.21 µM | [6] 42 µM | [7] 14.4 µM | [8] 11 µM | [9] 35.7 µM | [10] 18.8 µM | [11] > 100 µM | [12] > 66.7 µM | [13] 88.5 µM | [14] 11.1 µM | [15] 61.7 µM

COC(=O)c1nc(NC#N)nc(O)c1C
inactive: [1] > 100 µM | [2] > 89.5 µM | [3] > 77.3 µM | [4] > 100 µM | [5] > 100 µM | [6] > 100 µM | [7] > 100 µM | [8] > 100 µM | [9] > 100 µM | [10] > 100 µM | [11] > 100 µM | [12] > 78.9 µM | [13] > 100 µM | [14] > 53.3 µM | [15] > 100 µM
